US20130209543A1, “ENHANCED TREATMENT REGIMENS USING MTOR INHIBITORS” (Intellikine LLC, priority 2011, published 2013)
Read-outs that look alike come from different tables or passages of the source.

Legend:
Type in all cases: biochemical
[1] = target: T1, mTOR (Homo sapiens, UniProt P42345); test: mTOR kinase inhibition assay
T1 construct: purchased Invitrogen
Description: The compounds described herein and any other mTorC1/mTorC2 inhibitors known in the art can be tested against recombinant mTOR (Invitrogen) in an assay containing 50 mM HEPES, pH 7.5, 1 mM EGTA, 10 mM MgCl2, 2.5 mM, 0.01% Tween, 10 μM ATP (2.5 μCi of μ-32P-ATP), and 3 mg/mL BSA. Rat recombinant PHAS-1/4EBP1 (Calbiochem; 2 mg/mL) is used as a substrate. Reactions are terminated by spotting onto nitrocellulose, which is washed with 1M NaCl/1% phosphoric acid (approximately 6 times, 5-10 minutes each). Sheets are dried and the transferred radioactivity quantitated by phosphorimaging.
For instance, one can use Invitrogen's LanthaScreen™ Kinase assay to test the inhibitors of mTOR disclosed herein. This assay is a time resolved FRET platform that measures the phosphorylation of GFP labeled 4EBP1 by mTOR kinase. The kinase reaction is performed in a white 384 well microtitre plate. The total reaction volume is 20 μl per well and the reaction buffer composition is 50 mM HEPES pH7.5, 0.01% Polysorbate 20, 1 mM EGTA, 10 mM MnCl2, and 2 mM DTT. In the first step, each well receives 2 ul of test compound in 20% dimethylsulphoxide resulting in a 2% DMSO final concentration. Next, 8ul of mTOR diluted in reaction buffer is added per well for a 60 ng/ml final concentration. To start the reaction, 10 ul of an ATP/GFP-4EBP1 mixture (diluted in reaction buffer) is added per well for a final concentration of 10 μM ATP and 0.5 μM GFP-4EBP1. The plate is sealed and incubated for 1 hour at room temperature. […] The plate is sealed, incubated for 1 hour at room temperature, and then read on a plate reader set up for LanthaScreen™ TR-FRET. Data is analyzed and IC50s are generated using GraphPad Prism 5.

[2] = target: PI3K α (Homo sapiens, UniProt P42336); test: PI3K α kinase assay
[3] = target: PI3K γ (Homo sapiens, UniProt P48736); test: PI3K γ kinase assay
[4] = target: PI3K δ (Homo sapiens, UniProt O00329); test: PI3K δ kinase assay
[5] = target: PI3K β (Homo sapiens, UniProt P42338); test: PI3K β kinase assay
PI3K β, sequence (P42338 whole entry, species assumed): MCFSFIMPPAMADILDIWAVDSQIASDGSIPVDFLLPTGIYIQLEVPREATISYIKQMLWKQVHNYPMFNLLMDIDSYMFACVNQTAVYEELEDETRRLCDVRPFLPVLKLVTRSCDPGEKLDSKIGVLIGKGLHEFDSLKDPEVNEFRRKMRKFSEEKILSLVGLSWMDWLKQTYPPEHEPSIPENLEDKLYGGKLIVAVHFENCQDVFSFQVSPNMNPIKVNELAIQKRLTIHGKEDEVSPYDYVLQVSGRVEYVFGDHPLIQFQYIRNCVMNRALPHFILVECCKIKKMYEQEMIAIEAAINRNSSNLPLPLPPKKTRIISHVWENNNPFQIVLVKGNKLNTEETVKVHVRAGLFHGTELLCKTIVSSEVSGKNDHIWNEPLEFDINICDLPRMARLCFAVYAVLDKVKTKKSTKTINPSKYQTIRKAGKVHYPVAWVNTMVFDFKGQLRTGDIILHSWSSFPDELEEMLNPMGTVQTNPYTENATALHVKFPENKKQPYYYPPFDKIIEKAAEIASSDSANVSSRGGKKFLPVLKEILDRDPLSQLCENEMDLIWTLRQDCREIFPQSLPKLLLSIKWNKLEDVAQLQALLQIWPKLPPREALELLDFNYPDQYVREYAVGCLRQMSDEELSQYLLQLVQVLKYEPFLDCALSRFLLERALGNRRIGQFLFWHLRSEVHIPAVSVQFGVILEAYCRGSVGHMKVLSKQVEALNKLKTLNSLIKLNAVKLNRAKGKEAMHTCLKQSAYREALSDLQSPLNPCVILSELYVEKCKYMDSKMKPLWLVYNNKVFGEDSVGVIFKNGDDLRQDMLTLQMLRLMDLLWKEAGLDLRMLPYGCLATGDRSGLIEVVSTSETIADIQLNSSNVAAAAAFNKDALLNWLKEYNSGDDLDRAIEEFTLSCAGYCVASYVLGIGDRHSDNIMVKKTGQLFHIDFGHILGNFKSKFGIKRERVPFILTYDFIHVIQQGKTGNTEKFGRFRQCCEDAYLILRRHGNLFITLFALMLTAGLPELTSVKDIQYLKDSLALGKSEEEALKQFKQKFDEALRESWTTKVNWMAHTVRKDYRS
PI3K β, sequence (P27986 whole entry partner, species assumed): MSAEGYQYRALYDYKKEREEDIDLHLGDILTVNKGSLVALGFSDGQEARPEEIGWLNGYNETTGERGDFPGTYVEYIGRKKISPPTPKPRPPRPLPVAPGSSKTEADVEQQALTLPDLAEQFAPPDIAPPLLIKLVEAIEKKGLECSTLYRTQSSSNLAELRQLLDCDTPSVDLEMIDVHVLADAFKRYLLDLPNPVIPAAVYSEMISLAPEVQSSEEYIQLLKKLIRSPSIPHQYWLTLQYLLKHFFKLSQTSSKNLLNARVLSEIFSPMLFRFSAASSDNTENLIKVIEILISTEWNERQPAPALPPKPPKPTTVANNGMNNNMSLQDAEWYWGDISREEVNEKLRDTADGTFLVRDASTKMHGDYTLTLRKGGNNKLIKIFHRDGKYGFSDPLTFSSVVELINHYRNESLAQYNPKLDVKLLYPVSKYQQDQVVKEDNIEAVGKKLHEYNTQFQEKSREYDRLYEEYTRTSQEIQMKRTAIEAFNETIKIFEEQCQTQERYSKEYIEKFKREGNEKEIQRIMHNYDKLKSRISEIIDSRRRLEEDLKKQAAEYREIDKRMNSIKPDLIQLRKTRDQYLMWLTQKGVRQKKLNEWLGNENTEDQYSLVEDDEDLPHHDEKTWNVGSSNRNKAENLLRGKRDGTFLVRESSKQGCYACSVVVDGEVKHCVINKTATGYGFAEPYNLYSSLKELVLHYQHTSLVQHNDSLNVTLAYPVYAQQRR

PI3K δ, sequence (O00329 whole entry, species assumed): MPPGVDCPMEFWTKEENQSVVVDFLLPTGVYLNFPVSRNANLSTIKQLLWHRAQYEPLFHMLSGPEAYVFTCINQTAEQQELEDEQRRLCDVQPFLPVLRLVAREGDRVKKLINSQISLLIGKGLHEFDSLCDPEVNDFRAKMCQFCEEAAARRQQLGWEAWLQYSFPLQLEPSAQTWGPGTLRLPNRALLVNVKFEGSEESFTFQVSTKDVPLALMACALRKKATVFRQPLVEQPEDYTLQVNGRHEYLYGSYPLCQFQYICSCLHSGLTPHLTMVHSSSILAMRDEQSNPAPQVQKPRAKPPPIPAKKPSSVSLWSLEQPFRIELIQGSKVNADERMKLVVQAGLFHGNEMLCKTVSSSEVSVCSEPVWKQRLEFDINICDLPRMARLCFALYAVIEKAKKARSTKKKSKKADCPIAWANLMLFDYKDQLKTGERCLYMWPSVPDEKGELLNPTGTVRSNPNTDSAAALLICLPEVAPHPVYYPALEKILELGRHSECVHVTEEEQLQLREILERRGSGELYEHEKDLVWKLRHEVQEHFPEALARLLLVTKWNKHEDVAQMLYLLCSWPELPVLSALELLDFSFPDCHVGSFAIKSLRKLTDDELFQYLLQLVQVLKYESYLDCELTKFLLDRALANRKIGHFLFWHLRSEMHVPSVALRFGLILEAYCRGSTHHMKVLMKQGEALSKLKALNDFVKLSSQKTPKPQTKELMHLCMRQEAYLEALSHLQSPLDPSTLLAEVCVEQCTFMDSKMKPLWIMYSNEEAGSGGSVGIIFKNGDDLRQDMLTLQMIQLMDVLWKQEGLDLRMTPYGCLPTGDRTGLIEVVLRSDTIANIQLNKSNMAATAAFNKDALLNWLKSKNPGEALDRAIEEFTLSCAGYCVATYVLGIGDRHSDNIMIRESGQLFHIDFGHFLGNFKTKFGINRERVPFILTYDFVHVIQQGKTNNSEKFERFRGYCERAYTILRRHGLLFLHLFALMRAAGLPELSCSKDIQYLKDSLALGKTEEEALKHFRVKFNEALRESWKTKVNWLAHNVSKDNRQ
PI3K δ, sequence (P27986 whole entry partner, species assumed): as the sequence (P27986 whole entry partner, species assumed) above
PI3K γ, sequence (P48736 whole entry, species assumed): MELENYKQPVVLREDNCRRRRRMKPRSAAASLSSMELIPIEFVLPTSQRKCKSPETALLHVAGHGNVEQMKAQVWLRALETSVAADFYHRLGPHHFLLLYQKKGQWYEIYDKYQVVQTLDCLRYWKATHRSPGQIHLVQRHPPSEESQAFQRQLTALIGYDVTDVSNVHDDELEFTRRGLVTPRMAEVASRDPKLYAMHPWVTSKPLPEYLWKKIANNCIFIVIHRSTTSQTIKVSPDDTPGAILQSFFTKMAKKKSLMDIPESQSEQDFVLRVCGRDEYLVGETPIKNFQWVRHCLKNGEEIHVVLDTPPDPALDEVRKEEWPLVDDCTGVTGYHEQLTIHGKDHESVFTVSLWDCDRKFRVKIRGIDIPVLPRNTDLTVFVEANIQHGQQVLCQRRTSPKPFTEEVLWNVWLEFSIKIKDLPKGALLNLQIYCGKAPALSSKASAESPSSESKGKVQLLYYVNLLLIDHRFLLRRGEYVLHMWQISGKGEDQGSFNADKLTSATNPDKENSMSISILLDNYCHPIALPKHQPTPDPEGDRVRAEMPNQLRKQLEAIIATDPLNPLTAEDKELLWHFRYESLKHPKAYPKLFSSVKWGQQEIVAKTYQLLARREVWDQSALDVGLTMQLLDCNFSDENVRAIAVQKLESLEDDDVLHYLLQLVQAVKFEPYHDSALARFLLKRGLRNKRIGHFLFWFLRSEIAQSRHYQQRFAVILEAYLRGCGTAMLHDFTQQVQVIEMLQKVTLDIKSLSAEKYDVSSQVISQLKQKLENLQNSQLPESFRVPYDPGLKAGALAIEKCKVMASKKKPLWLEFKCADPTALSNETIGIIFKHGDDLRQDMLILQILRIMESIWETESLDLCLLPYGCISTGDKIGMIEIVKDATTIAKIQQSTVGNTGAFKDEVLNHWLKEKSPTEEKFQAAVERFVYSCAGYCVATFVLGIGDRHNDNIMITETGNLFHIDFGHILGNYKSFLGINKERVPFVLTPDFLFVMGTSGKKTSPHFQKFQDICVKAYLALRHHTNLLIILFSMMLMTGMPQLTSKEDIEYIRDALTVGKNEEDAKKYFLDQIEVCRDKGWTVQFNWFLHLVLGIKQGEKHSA
PI3K α, sequence (P42336 whole entry, species assumed): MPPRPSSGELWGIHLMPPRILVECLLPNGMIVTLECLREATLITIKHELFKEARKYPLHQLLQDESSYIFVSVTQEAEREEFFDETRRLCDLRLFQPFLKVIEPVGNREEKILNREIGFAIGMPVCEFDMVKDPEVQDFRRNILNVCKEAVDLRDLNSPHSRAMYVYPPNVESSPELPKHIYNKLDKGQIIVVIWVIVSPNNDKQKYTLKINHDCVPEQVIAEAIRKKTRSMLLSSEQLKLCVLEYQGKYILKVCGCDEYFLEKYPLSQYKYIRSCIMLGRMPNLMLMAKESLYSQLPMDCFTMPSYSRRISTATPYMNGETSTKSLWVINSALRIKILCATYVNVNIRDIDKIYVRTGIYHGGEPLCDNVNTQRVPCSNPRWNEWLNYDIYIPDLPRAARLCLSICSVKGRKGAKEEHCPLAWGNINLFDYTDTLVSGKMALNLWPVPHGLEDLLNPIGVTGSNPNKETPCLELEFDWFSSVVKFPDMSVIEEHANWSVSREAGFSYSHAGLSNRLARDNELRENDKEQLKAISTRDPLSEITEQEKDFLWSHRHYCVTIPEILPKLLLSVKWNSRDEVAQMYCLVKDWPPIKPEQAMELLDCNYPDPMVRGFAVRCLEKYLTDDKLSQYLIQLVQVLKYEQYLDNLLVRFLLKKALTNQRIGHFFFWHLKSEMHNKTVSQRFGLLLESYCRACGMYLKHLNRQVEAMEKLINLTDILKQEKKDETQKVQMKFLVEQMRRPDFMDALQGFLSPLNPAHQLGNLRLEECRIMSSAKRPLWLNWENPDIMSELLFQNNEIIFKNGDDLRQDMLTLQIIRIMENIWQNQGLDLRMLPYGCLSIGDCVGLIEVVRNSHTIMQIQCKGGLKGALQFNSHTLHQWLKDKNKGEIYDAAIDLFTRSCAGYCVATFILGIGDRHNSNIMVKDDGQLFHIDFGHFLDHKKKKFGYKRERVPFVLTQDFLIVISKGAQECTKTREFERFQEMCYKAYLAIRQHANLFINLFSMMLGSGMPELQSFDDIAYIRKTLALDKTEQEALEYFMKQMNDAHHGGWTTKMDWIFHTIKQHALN
PI3K α, sequence (P27986 whole entry partner, species assumed): as the sequence (P27986 whole entry partner, species assumed) above

## CC(C)n1nc(-c2cc3cc(F)ccc3[nH]2)c2c(NC(=O)N(C)C)ncnc21 [Compound 2]
[1]; Table 2, read-out: mTORC IC50
  IC50: > 500 nM

## CC(=O)Nc1nc2ccc(-c3nn(C(C)C)c4ncnc(N)c34)cc2o1 [Compound 3]
[2]; Table 1
  IC50: > 10000 nM

## CC(C)n1nc(-c2cc3cc(F)ccc3[nH]2)c2c(N)ncnc21 [Compound 3]
[1]; Table 2, read-out: mTORC IC50
  IC50: 100 to 500 nM
[2]; Table 2
  IC50: > 500 nM

## CC(C)n1nc(-c2cc3cc(C#N)ccc3[nH]2)c2c(N)ncnc21 [Compound 4]
[1]; Table 2, read-out: mTORC IC50
  IC50: > 500 nM
[2]; Table 2
  IC50: > 500 nM

## COc1ccc2[nH]c(-c3nn(C(C)C)c4ncnc(N)c34)cc2c1 [Compound 5]
[1]; Table 2, read-out: mTORC IC50
  IC50: > 500 nM
[2]; Table 2
  IC50: > 500 nM

## CC(C)n1nc(-c2cc3ccccc3n2C)c2c(N)ncnc21 [Compound 6]
[1]; Table 2, read-out: mTORC IC50
  IC50: > 500 nM
[2]; Table 2
  IC50: > 500 nM

## CC(C)n1nc(-c2cc3ccccc3[nH]2)c2c(N)ncnc21 [Compound 7]
[1]; Table 2, read-out: mTORC IC50
  IC50: 50 to 100 nM
[2]; Table 2
  IC50: > 500 nM

## COc1ccc2cc(-c3nn(C(C)C)c4ncnc(N)c34)[nH]c2c1 [Compound 8]
[1]; Table 2, read-out: mTORC IC50
  IC50: > 500 nM
[2]; Table 2
  IC50: > 500 nM

## CC(C)n1nc(-c2cc3c(Cl)cccc3[nH]2)c2c(N)ncnc21 [Compound 9]
[1]; Table 2, read-out: mTORC IC50
  IC50: 25 to 50 nM
[2]; Table 2
  IC50: > 500 nM

## COc1cccc2cc(-c3nn(C(C)C)c4ncnc(N)c34)[nH]c12 [Compound 10]
[1]; Table 2, read-out: mTORC IC50
  IC50: 10 to 25 nM

## CNc1noc2cc(-c3nn(C(C)C)c4ncnc(N)c34)ccc12 [Compound 13]
[1]; Table 1, read-out: mTOR IC50
  IC50: < 10000 nM
[2]; Table 1
  IC50: < 10000 nM
[3]; Table 1
  IC50: < 1000 nM
[4]; Table 1
  IC50: < 1000 nM

## COc1cc(Cl)c2[nH]c(-c3nn(C(C)C)c4ncnc(N)c34)cc2c1 [Compound 13]
[1]; Table 2, read-out: mTORC IC50
  IC50: > 500 nM
[2]; Table 2
  IC50: > 500 nM

## CC(C)n1nc(-c2ccc3c(NC4CC4)noc3c2)c2c(N)ncnc21 [Compound 14]
[1]; Table 1, read-out: mTOR IC50
  IC50: < 10000 nM
[2]; Table 1
  IC50: < 10000 nM
[4]; Table 1
  IC50: < 10000 nM

## COc1cc(F)c2[nH]c(-c3nn(C(C)C)c4ncnc(N)c34)cc2c1 [Compound 14]
[1]; Table 2, read-out: mTORC IC50
  IC50: > 500 nM
[2]; Table 2
  IC50: > 500 nM

## CC(C)n1nc(-c2ccc3onc(NC4CC4)c3c2)c2c(N)ncnc21 [Compound 16]
[1]; Table 1, read-out: mTOR IC50
  IC50: > 10000 nM
[2]; Table 1
  IC50: > 10000 nM
[4]; Table 1
  IC50: > 10000 nM

## CC(C)n1nc(-c2cc3cc(Cl)ccc3[nH]2)c2c(N)ncnc21 [Compound 17]
[1]; Table 2, read-out: mTORC IC50
  IC50: > 500 nM
[2]; Table 2
  IC50: > 500 nM

## Nc1noc2ccc(-c3nn(CC(=O)N4CCOCC4)c4ncnc(N)c34)cc12 [Compound 17]
[1]; Table 1, read-out: mTOR IC50
  IC50: > 10000 nM
[2]; Table 1
  IC50: > 10000 nM
[3]; Table 1
  IC50: > 10000 nM
[4]; Table 1
  IC50: > 10000 nM

## COc1ccc2[nH]c(-c3nn(C(C)C)c4ncnc(N)c34)cc2n1 [Compound 18]
[1]; Table 2, read-out: mTORC IC50
  IC50: > 500 nM

## COC(=O)Nc1noc2ccc(-c3nn(C(C)C)c4ncnc(N)c34)cc12 [Compound 19]
[1]; Table 1, read-out: mTOR IC50
  IC50: < 10000 nM
[2]; Table 1
  IC50: > 10000 nM
[5]; Table 1
  IC50: > 10000 nM
[4]; Table 1
  IC50: > 10000 nM

## COc1cnc2[nH]c(-c3nn(C(C)C)c4ncnc(N)c34)cc2c1 [Compound 19]
[1]; Table 2, read-out: mTORC IC50
  IC50: > 500 nM
[2]; Table 2
  IC50: > 500 nM

## CC(C)n1nc(-c2cc3cnccc3[nH]2)c2c(N)ncnc21 [Compound 20]
[1]; Table 2, read-out: mTORC IC50
  IC50: > 500 nM
[2]; Table 2
  IC50: > 500 nM

## COC(=O)Nc1noc2cc(-c3nn(C(C)C)c4ncnc(N)c34)ccc12 [Compound 20]
[1]; Table 1, read-out: mTOR IC50
  IC50: < 10000 nM
[2]; Table 1
  IC50: < 10000 nM
[5]; Table 1
  IC50: > 10000 nM
[4]; Table 1
  IC50: < 10000 nM

## CC(C)n1nc(-c2cc3ccc(O)cc3[nH]2)c2c(N)ncnc21 [Compound 21]
[1]; Table 2, read-out: mTORC IC50
  IC50: 25 to 50 nM
[2]; Table 2
  IC50: 100 to 500 nM
[5]; Table 2
  IC50: > 500 nM
[3]; Table 2
  IC50: 100 to 500 nM
[4]; Table 2
  IC50: 100 to 500 nM

## Cc1nc(N)c2c(-c3ccc4oc(N)nc4c3)nn(C(C)C)c2n1 [Compound 21]
[1]; Table 1, read-out: mTOR IC50
  IC50: < 1000 nM
[2]; Table 1
  IC50: > 10000 nM
[5]; Table 1
  IC50: > 10000 nM
[3]; Table 1
  IC50: > 10000 nM
[4]; Table 1
  IC50: > 10000 nM

## CC(C)n1nc(-c2cc3cc(C(N)=O)ccc3[nH]2)c2c(N)ncnc21 [Compound 23]
[1]; Table 2, read-out: mTORC IC50
  IC50: > 500 nM
[2]; Table 2
  IC50: > 500 nM

## CC(CO)n1nc(-c2ccc3oc(N)nc3c2)c2c(N)ncnc21 (stereo not shown) [Compound 23]
[1]; Table 1, read-out: mTOR IC50
  IC50: < 100 nM
[2]; Table 1
  IC50: < 10000 nM
[5]; Table 1
  IC50: > 10000 nM
[3]; Table 1
  IC50: < 10000 nM
[4]; Table 1
  IC50: < 10000 nM

## Nc1nc2cc(-c3nn(C4CC(=O)C4)c4ncnc(N)c34)ccc2o1 [Compound 25]
[2]; Table 1
  IC50: < 1000 nM
[5]; Table 1
  IC50: < 10000 nM
[3]; Table 1
  IC50: < 100 nM
[4]; Table 1
  IC50: < 1000 nM

## Nc1nc2cc(-c3nn(C4CC(O)C4)c4ncnc(N)c34)ccc2o1 (stereo not shown) [Compound 26]
[2]; Table 1
  IC50: < 100 nM
[3]; Table 1
  IC50: < 100 nM
